According to US10555532B2, “Plant growth-promoting bacteria and methods of use” (priority 2013, dated 2020):

Columns and labels:
Corn = Corn growth, bacteria with plant-growth-promoting chemicals; format: in vivo; settings: 2 weeks
Procedure: (§1) The selected strains were grown in minimal media (KH2PO4 3 g, Na2HPO4 6 g, NH4Cl 1 g, NaCl 0.50 g, MgSO4 7H2O 0.15 g, CaCl2 2H2O 0.013 g, and glucose 1 g, per L dry weight).

Soybeans = assay: Soybean growth, bacteria with plant-growth-promoting chemicals; format: in vivo; settings: 2 weeks
Procedure: as §1

Row | Compound | Comparison to Uninoculated (Corn; corn height) | Avg. Height (cm) (Corn; corn, with or without 2,3-butanediol or yeast extract) | Comparison to Uninoculated (Soybeans; soybean height) | Avg. Height (cm) (Soybeans; soybeans, with or without glycerol, 2,3-butanediol or yeast extract)
1 | CC(O)C(C)O (stereo not shown) [Uninoculated and 2,3-butanediol, 2,3-butanediol] | 105.8% | 16.03 cm |  | 
2 | OCC(O)CO [Uninoculated and Glycerol, glycerol] |  |  | 109.8% | 12.34 cm
